How the values were obtained:
Type in all cases: cell-based, Escherichia coli
[1] = tested on: E. coli clinical strain 7426; test: cAST platform antimicrobial susceptibility testing (resazurin, capillary format)
Method: (§1) The disclosure includes use of steel capillary tubes of size 50 mm×1.59 mm×0.76 mm (L×O.D.×I.D.) to hold the samples. Alternatively, glass capillary tubes (Drummond Scientific) of similar size can also be used. However, in the case of glass, the ends of the tubes are coated with paint or a similar substance to prevent excess light from the LEDs leaking into the fiber-optic detector. During sample loading, 4 μL liquid culture droplets were individually pipetted onto a clean substrate and then loaded into the tubes via capillary action. The capillary tubes used as conduits were sterilized prior to loading through autoclaving. Following loading, tubes were inserted into the sample holder in a configuration that allows light from the LEDs to pass through the sample and into the fiber-optic detector. Since the volume capacity of the capillary tubes was higher than the sample volume of 4 μL, the tubes were loaded with the fluid-filled side near the light-source as this configuration was determined to yield higher signal-to-noise ratios. This approach to sample loading is encompassed by the disclosure. During AST, the cAST platform was placed inside a benchtop incubator (Corning) set to 37° C. in ambient air. A small portable humidifier was also placed inside the incubator (80-85% relative humidity) to minimize sample drying during incubation. Thus, in embodiments, a system of the disclosure may include a humidifying device or composition to act as […]. Every 30 min, spectral intensity measurements were automatically taken for each sample and data were transferred and stored on a computer for processing using OceanView (Ocean Optics).
(§2) The cAST platform was initially used to test five different quality control (QC) strains: Escherichia coli ATCC 25922, Enterobacter cloacae ATCC 13047, Acinetobacter baumannii ATCC BAA-747, Pseudomonas aeruginosa ATCC 27853, and Escherichia coli K12 ER2267 (kanamycin resistant). To prepare inocula for AST, strains were first streaked on Mueller-Hinton II agar plates (Becton, Dickinson and Company) and incubated overnight at 37° C. in ambient air. For the kanamycin resistant E. coli K12 strain, the agar was supplemented with kanamycin (MilliporeSigma) at a final concentration of 50 μg/mL. Liquid cultures were then prepared by inoculating single colonies into CAMHB, followed by overnight incubation at 37° C. in ambient air. […] Using a spectrophotometer (V-1200, VWR), the OD625nm absorbance corresponding to a 0.5 McFarland standard was verified to be in the range of 0.08-0.13^21. […] Resazurin is a redox indicator that is reduced by metabolically active cells into resorufin, leading to significant colorimetric and fluorescent changes in the culture media which can be measured to gauge bacterial growth^20. […]

[2] = tested on: E. coli clinical strain 7704; test: as above
Method: as §1, §2

[3] = tested on: E. coli clinical strain 7426; test: clinical gradient diffusion (E-test, bioMérieux); conditions: gradient diffusion overnight
Method: (§3) Following testing of the QC strains, the cAST platform was used to test two E. coli clinical isolates. Following the same protocol used to test the QC strains, the clinical isolates were tested with ten two-fold dilution gentamicin concentrations spanning 0.5 μg/mL to 256 μg/mL. Testing was conducted blind and results were subsequently compared with clinical results generated using gradient diffusion (E-test, bioMérieux).

[4] = tested on: E. coli clinical strain 7704; test: clinical gradient diffusion (E-test, bioMérieux); conditions: gradient diffusion overnight
Method: as §3

[5] = cAST in categorical agreement with gradient diffusion

gentamicin
predicted MIC ([1]; cAST at 6 h): 128 µg/mL | susceptibility category [1, 5]: resistant (resistant (≥16 μg/mL)) | predicted MIC ([2]; cAST at 6 h): 1 µg/mL | susceptibility category [2, 5]: susceptible (susceptible (≤4 μg/mL)) | MIC [3]: ≥ 256 µg/mL | MIC [4]: 1.5 µg/mL

— patent publication US12391972B2, “Capillary-based system for accelerated antimicrobial susceptibility testing” (Cornell University, priority 2019, dated 2025)
